Source: patent US20240190841A1, “MODULATORS OF BCL6 PROTEOLYSIS AND ASSOCIATED METHODS OF USE” (Arvinas Operations, Inc., priority 2022, published 2024)

biological target: T1, BCL6 (Homo sapiens, UniProt P41182); assay: Immunofluorescence high content imaging of BCL6 degradation in T47D cells; format: cell-based; settings: T47D breast cancer epithelial cells, 3 days incubation
T1 construct: endogenous in cells; host or cells: T47D breast cancer epithelial cells
Protocol: Immunofluorescence Protocol for High Content Imaging of BCL6
T47D cells were seeded in 100 μl volume of RPMI11640-10% FBS in a 96-well black/clear bottom plates for adherent lines (Corning #3904).
Day 1. T47D breast cancer epithelial cells were seeded at a density so that confluence is ˜70-90% at endpoint. Cells were seeded at 7K/0.1 mL/well the morning prior to the addition of exemplary bifunctional degradation compounds.
Day 2. Prepare an 11 point 3-fold serial dilution of exemplary bifunctional compound in DMSO and aliquot an appropriate volume to cell growth media to generate a 2× final concentration of exemplary bifunctional compound. Add an equal volume (0.1 ml) of 2× exemplary bifunctional compound/media mix to previously plated cells, for a final top concentration in aqueous cell growth media of 0.1 or 1 μM. Incubate for 3 days at 37° C., 5% CO2.
Day 5 Immunofluorescence. Discard cell media. Wash wells with 200 μl of room temperature phosphate-buffered saline (PBS). Prepared 4% paraformaldehyde (PFA) from 16% PFA (Electron Microscopy Sciences #15710) using 1×PBS. Fifty μL of 4% PF was added to each well and incubate for 15 minutes at room temperature to fix the cells. The PFA was aspirated and the cells washed twice with PBS (200 μL)).
Prepared 0.1% Triton X-100 in PBS using 10% triton X-100 stock. The cells were permeabilized by adding 100 μL of the 0.1% Triton X-100 in PBS to each well to permeabilize cells and incubating at room temperature for 15 minutes. Cells were washed twice with PBS.
Prepared 3% BSA/PBS (from Thermofisher #37515 Blocker BSA in TBS, 10%), and 100 μL was added to each well. The cells were incubated for at least 1 hour at room temperature.
Prepared 1% BSA/PBS using Blocker BSA/PBS, and the 3% BSA/PBS removed from the wells.
For no primary antibody controls, 50 μL 1% BSA/PBS was added.
Primary antibody (BCL6 Rb Ab, CST-14895, Cell Signaling) was diluted 1:300 in 1% BSA/PBS using Blocker BSA/PBS.
Fifty μl of primary antibody added to all remaining wells (i.e., all wells other than the primary antibody controls) and the cells were incubated overnight at 4° C. with slow orbital movement.
Day 6. Contents of the wells was removed and the cells washed four times with 200 μL PBS. 1% BSA/PBS was prepared using Blocker BSA in PBS.
Diluted secondary antibody goat anti-Rb IgG Alexa-488 1:1000, and cell mask-Alexa-647 1:3000 in 1% BSA/PBS in the same mix. Add 50 μL to each well and incubate at room temperature for 1 hour in the dark.
Cells were washed three times with 200 μL PBS, and then incubated for 10 minutes with 100 μL Hoechst dye at 1 μg/mL (20 mM stock) to stain cell nuclei. Wells were then washed with 200 μl PBS, and 100 μL of PBS was added to each well and the plate covered plate with a plastic opaque cover. Plates were stored at […] and covered in aluminum foil until imaged.
Plates were equilibrated to room temperature prior to reading. The bottom of the plate was wiped with 70% isopropanol immediately prior to imaging.
Imaging: • 10×, 4 fields/well, include Top hat smoothing in the analysis protocol.
Supplies/Reagents: • 16% paraformaldehyde: Electron Microscopy Sciences #15710 • Hoechst: Thermofisher #62249 • Blocker BSA in PBS, 10%: Thermofisher #37515 • Blocker BSA in TBS, 10%: Thermofisher #37520 • Goat anti-rabbit or mouse AlexaFluor-488: Thermofisher #A11008 • Cell mask deep red AlexaFluor-647: Thermofisher #C10046 • Wash buffer, PBS: 20×PBS, Thermofisher

SMILES | DC50 [µM] | Dmax [%]
CNC(=O)COc1cc2cc(Nc3nc(N4CCC(O[C@H]5C[C@H](N6CCN(c7ccc8c(c7F)n(C)c(=O)n8C7CCC(=O)NC7=O)CC6)C5)CC4)ncc3Cl)ccc2n(C(C)C)c1=O (stereo partly shown) [Compound 8, 2-({6-[(5-chloro-2-{4-[(1r,3r)-3-{4-[1-(2,6-dioxopiperidin-3-yl)-4-fluoro-3-methyl-2-oxo-2,3-dihydro-1H-1,3-benzodiazol-5-yl]piperazin-1-yl}cyclobutoxy]piperidin-1-yl}pyrimidin-4-yl)amino]-2-oxo-1-(propan-2-yl)-1,2-dihydroquinolin-3-yl}oxy)-N-methylacetamide] | < 0.01 | ≥ 70
CNC(=O)COc1cc2cc(Nc3nc(N4CCC(O[C@H]5C[C@H](N6CCN(c7ccc8ncn(C9CCC(=O)NC9=O)c8c7)CC6)C5)CC4)ncc3Cl)ccc2n(C(C)C)c1=O (stereo partly shown) [Compound 24, 2-({6-[(5-chloro-2-{4-[(1r,3r)-3-{4-[1-(2,6-dioxopiperidin-3-yl)-1H-1,3-benzodiazol-6-yl]piperazin-1-yl}cyclobutoxy]piperidin-1-yl}pyrimidin-4-yl)amino]-2-oxo-1-(propan-2-yl)-1,2-dihydroquinolin-3-yl}oxy)-N-methylacetamide] | < 0.01 | ≥ 70
CNC(=O)COc1cc2cc(Nc3nc(N4CCC(O)(CC(=O)N5CCN(c6ccc7c(c6F)CN(C6CCC(=O)NC6=O)C7=O)CC5)CC4)ncc3Cl)ccc2n(C(C)C)c1=O (stereo not shown) [Compound 41, 2-{[6-({5-chloro-2-[4-(2-{4-[2-(2,6-dioxopiperidin-3-yl)-4-fluoro-1-oxo-2,3-dihydro-1H-isoindol-5-yl]piperazin-1-yl}-2-oxoethyl)-4-hydroxypiperidin-1-yl]pyrimidin-4-yl}amino)-2-oxo-1-(propan-2-yl)-1,2-dihydroquinolin-3-yl]oxy}-N-methylacetamide] | < 0.01 | ≥ 70
CNC(=O)COc1cc2cc(Nc3nc(N4CCC(O[C@H]5C[C@H](N6CCN(c7cc(C)c8c(c7)CN(C7CCC(=O)NC7=O)C8=O)CC6)C5)CC4)ncc3Cl)ccc2n(C(C)C)c1=O (stereo partly shown) [Compound 36, 2-({6-[(5-chloro-2-{4-[(1r,3r)-3-{4-[2-(2,6-dioxopiperidin-3-yl)-7-methyl-1-oxo-3H-isoindol-5-yl]piperazin-1-yl}cyclobutoxy]piperidin-1-yl}pyrimidin-4-yl)amino]-1-isopropyl-2-oxoquinolin-3-yl}oxy)-N-methylacetamide] | < 0.01 | 50 to 70
CNC(=O)COc1cc2cc(Nc3nc(N4CCC(O[C@H]5C[C@H](N6CCN(c7cc(C)c8c(c7)n(C)c(=O)n8C7CCC(=O)NC7=O)CC6)C5)CC4)ncc3Cl)ccc2n(C(C)C)c1=O (stereo partly shown) [Compound 26, 2-({6-[(5-chloro-2-{4-[(1r,3r)-3-{4-[1-(2,6-dioxopiperidin-3-yl)-3,7-dimethyl-2-oxo-2,3-dihydro-1H-1,3-benzodiazol-5-yl]piperazin-1-yl}cyclobutoxy]piperidin-1-yl}pyrimidin-4-yl)amino]-2-oxo-1-(propan-2-yl)-1,2-dihydroquinolin-3-yl}oxy)-N-methylacetamide] | 0.01 to 0.05 | 50 to 70
CNC(=O)COc1cc2cc(Nc3nc(N4CCC(O[C@H]5C[C@H](N6CCN(c7ccc8c(c7C)n(C)c(=O)n8C7CCC(=O)NC7=O)CC6)C5)CC4)ncc3Cl)ccc2n(C(C)C)c1=O (stereo partly shown) [Compound 19, 2-({6-[(5-chloro-2-{4-[(1r,3r)-3-{4-[1-(2,6-dioxopiperidin-3-yl)-3,4-dimethyl-2-oxo-2,3-dihydro-1H-1,3-benzodiazol-5-yl]piperazin-1-yl}cyclobutoxy]piperidin-1-yl}pyrimidin-4-yl)amino]-2-oxo-1-(propan-2-yl)-1,2-dihydroquinolin-3-yl}oxy)-N-methylacetamide] | < 0.01 | ≥ 70
CNC(=O)COc1cc2cc(Nc3nc(N4CCC(O[C@H]5C[C@H](N6CCN(c7cnc8c(c7)n(C)c(=O)n8C7CCC(=O)NC7=O)CC6)C5)CC4)ncc3Cl)ccc2n(C(C)C)c1=O (stereo partly shown) [Compound 16, 2-({6-[(5-chloro-2-{4-[(1r,3r)-3-{4-[3-(2,6-dioxopiperidin-3-yl)-1-methyl-2-oxo-1H,2H,3H-imidazo[4,5-b]pyridin-6-yl]piperazin-1-yl}cyclobutoxy]piperidin-1-yl}pyrimidin-4-yl)amino]-2-oxo-1-(propan-2-yl)-1,2-dihydroquinolin-3-yl}oxy)-N-methylacetamide] | < 0.01 | 50 to 70
CNC(=O)COc1cc2cc(Nc3nc(N4CCC(O[C@H]5C[C@H](N6CCN(c7ccc8c(c7F)[C@@H](C)N([C@@H]7CCC(=O)NC7=O)C8=O)[C@H](C)C6)C5)CC4)ncc3Cl)ccc2n(C(C)C)c1=O (single isomer, unassigned) [Compound 31] | < 0.01 | 
CNC(=O)COc1cc2cc(Nc3nc(N4CCC(O[C@H]5C[C@H](N6CCN(c7ccc8c(c7)n(C7CCC(=O)NC7=O)c(=O)n8C)CC6)C5)CC4)ncc3Cl)ccc2n(C(C)C)c1=O (stereo partly shown) [Compound 11, 2-({6-[(5-chloro-2-{4-[(1r,3r)-3-{4-[3-(2,6-dioxopiperidin-3-yl)-1-methyl-2-oxo-2,3-dihydro-1H-1,3-benzodiazol-5-yl]piperazin-1-yl}cyclobutoxy]piperidin-1-yl}pyrimidin-4-yl)amino]-2-oxo-1-(propan-2-yl)-1,2-dihydroquinolin-3-yl}oxy)-N-methylacetamide] | 0.01 to 0.05 | < 50
CNC(=O)COc1cc2cc(Nc3nc(N4CCC(O[C@H]5C[C@H](N6CCN(c7cc8c(cc7F)n(C7CCC(=O)NC7=O)c(=O)n8C)CC6)C5)CC4)ncc3Cl)ccc2n(C(C)C)c1=O (stereo partly shown) [Compound 9, 2-({6-[(5-chloro-2-{4-[(1r,3r)-3-{4-[1-(2,6-dioxopiperidin-3-yl)-6-fluoro-3-methyl-2-oxo-2,3-dihydro-1H-1,3-benzodiazol-5-yl]piperazin-1-yl}cyclobutoxy]piperidin-1-yl}pyrimidin-4-yl)amino]-2-oxo-1-(propan-2-yl)-1,2-dihydroquinolin-3-yl}oxy)-N-methylacetamide] | < 0.01 | ≥ 70
CNC(=O)COc1cc2cc(Nc3nc(N4CCN(C(=O)CC5(O)CCN(c6ccc7c(c6F)CN(C6CCC(=O)NC6=O)C7=O)CC5)CC4)ncc3Cl)ccc2n(C(C)C)c1=O (stereo not shown) [Compound 40, 2-{[6-({5-chloro-2-[4-(2-{1-[2-(2,6-dioxopiperidin-3-yl)-4-fluoro-1-oxo-3H-isoindol-5-yl]-4-hydroxypiperidin-4-yl}acetyl)piperazin-1-yl]pyrimidin-4-yl}amino)-1-isopropyl-2-oxoquinolin-3-yl]oxy}-N-methylacetamide] | < 0.01 | ≥ 70
CNC(=O)COc1cc2cc(Nc3nc(N4CCC(O[C@H]5C[C@H](N6CCC(c7ccc8c(c7)n(C)c(=O)n8C7CCC(=O)NC7=O)CC6)C5)CC4)ncc3Cl)ccc2n(C(C)C)c1=O (stereo partly shown) [Compound 4, 2-({6-[(5-chloro-2-{4-[(1r,3r)-3-{4-[1-(2,6-dioxopiperidin-3-yl)-3-methyl-2-oxo-2,3-dihydro-1H-1,3-benzodiazol-5-yl]piperidin-1-yl}cyclobutoxy]piperidin-1-yl}pyrimidin-4-yl)amino]-2-oxo-1-(propan-2-yl)-1,2-dihydroquinolin-3-yl}oxy)-N-methylacetamide] | < 0.01 | ≥ 70
CNC(=O)COc1cc2cc(Nc3nc(N4CCC(O[C@H]5C[C@H](N6CCN(c7ccc8c(c7)n(C(C)C)c(=O)n8C7CCC(=O)NC7=O)CC6)C5)CC4)ncc3Cl)ccc2n(C(C)C)c1=O (stereo partly shown) [Compound 12, 2-({6-[(5-chloro-2-{4-[(1r,3r)-3-{4-[1-(2,6-dioxopiperidin-3-yl)-2-oxo-3-(propan-2-yl)-2,3-dihydro-1H-1,3-benzodiazol-5-yl]piperazin-1-yl}cyclobutoxy]piperidin-1-yl}pyrimidin-4-yl)amino]-2-oxo-1-(propan-2-yl)-1,2-dihydroquinolin-3-yl}oxy)-N-methylacetamide] | < 0.01 | ≥ 70
